For the test, the target named is T1, recombinant human tissue transglutaminase (Homo sapiens, UniProt P21980).
T1 construct: made in house
T1 sequence (P21980 1-687): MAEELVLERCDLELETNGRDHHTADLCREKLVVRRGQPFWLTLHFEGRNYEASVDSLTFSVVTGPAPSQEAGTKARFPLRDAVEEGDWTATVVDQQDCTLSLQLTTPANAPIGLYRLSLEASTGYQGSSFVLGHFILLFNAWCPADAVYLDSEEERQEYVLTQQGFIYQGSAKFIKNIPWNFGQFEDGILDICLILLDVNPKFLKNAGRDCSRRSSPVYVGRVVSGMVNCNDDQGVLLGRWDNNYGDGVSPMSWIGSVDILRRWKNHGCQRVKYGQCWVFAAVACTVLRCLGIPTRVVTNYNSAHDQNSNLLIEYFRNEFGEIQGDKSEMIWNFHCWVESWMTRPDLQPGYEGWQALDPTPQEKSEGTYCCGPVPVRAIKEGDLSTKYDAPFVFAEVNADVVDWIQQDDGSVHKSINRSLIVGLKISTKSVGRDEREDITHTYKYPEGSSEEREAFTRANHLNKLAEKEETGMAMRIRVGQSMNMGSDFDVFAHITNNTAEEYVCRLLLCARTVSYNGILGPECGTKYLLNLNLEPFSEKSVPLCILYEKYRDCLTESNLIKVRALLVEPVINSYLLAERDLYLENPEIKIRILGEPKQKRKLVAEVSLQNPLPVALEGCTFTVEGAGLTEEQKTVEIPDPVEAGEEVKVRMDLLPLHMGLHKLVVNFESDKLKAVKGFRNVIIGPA
As to the kind of experiment: tTGase inhibition assay, residual activity by glutamate dehydrogenase coupled assay. The class given is biochemical. The settings on record: dihydroisoxazoles, Table 1.

In the case of `O=C(N[C@@H](Cc1ccc(O)cc1)C(=O)NCC1CC(Br)=NO1)OCc1ccccc1` (some centres unmarked) [Compound 59], the kinh came out at 0.86 min⁻¹ and the kinh/Ki is 2000 min^−1M^−1.

The values are drawn from patent US8153593B2, “Transglutaminase inhibitors and methods of use thereof” (The Board of Trustees of the Leland Stanford Junior …, priority 2003, dated 2012).
